From ChEMBL document CHEMBL1125729, “A cardioselective, hydrophilic N,N,N-trimethylethanaminium alpha-tocopherol analogue that reduces myocardial infarct size” (J Med Chem, 1991)

What was measured:
[1] = test system: Rattus norvegicus; experiment: Total radioactivity 1 hour after intravenous administration of 1 mg/kg in rat skeletal muscle.; assay type: functional, Muscle tissue
[2] = Ratio of total radioactivity of blood to blood in rats.
[3] = Ratio of total radioactivity of heart tissue to blood in rats.; assay type: tissue-based
[4] = Ratio of total radioactivity of skeletal muscle to blood in rats.
[5] = test system: Rattus norvegicus; experiment: Total radioactivity 1 hour after intravenous administration of 1 mg/kg in rat heart.; assay type: functional
[6] = Partition coefficient (logD) (octanol/phosphate buffer); assay type: physicochemical
[7] = test system: Rattus norvegicus; experiment: Total radioactivity 1 hour after intravenous administration of 1 mg/kg in rat blood.; assay type: functional
[8] = organism: Rattus norvegicus; experiment: Compound was evaluated for prevention of spontaneous lipid peroxidation in rat brain homogenate.; assay type: functional

## CC(=O)Oc1c(C)c(C)c2c(c1C)CCC(C)(CCN(C)C)O2 (stereo unspecified)
[1]
  Total radioactivity: 0.27
[2]
  Ratio: 1
[3]
  Ratio: 1.6
[4]
  Ratio: 1.5
[5]
  Total radioactivity: 0.28
[6]
  logD: 1.56
[7]
  Total radioactivity: 0.18

## Cc1c(C)c2c(c(C)c1O)CCC(C)(C(=O)O)O2 (stereo unspecified) [TROLOX]
[8]
  IC50: 12 µM
[6]
  logD: -1.02

## Cc1c(C)c2c(c(C)c1O)CCC(C)(CC[N+](C)(C)C)O2 (stereo unspecified)
[8]
  IC50: 1.7 µM
[6]
  logD: -0.6

## Cc1c(C)c2c(c(C)c1O)CCC(C)(CCN(C)C)O2 (stereo unspecified)
[8]
  IC50: 0.5 µM
[6]
  logD: 1.15

## CC(=O)Oc1c(C)c(C)c2c(c1C)CCC(C)(CC[N+](C)(C)C)O2 (stereo unspecified)
[1]
  Total radioactivity: 0.19
[2]
  Ratio: 1
[3]
  Ratio: 20.7
[4]
  Ratio: 1.7
[5]
  Total radioactivity: 2.28
[6]
  logD: -0.18
[7]
  Total radioactivity: 0.11

## Cc1c(C)c2c(c(C)c1O)CC[C@@](C)(CCC[C@H](C)CCC[C@H](C)CCCC(C)C)O2 (racemic) [ALPHA-TOCOPHEROL]
[8]
  IC50: 12 µM
